{"source": "paper PMC11392244", "about": "“Characterization of a unique catechol-O-methyltransferase as a molecular drug target in parasitic filarial nematodes” (PLOS Neglected Tropical Diseases, 2024)", "key": {"DiMT protein": {"tested_on": "DiMT protein", "assay_type": "biochemical, Dirofilaria immitis"}, "D. immitis microfilariae": {"tested_on": "D. immitis microfilariae", "assay": "In vitro efficacy against live D. immitis microfilariae (motility, completely immotile %)", "assay_type": "cell-based, Dirofilaria immitis", "conditions": "for Completely Immotile Microfilariae (%): single experiments"}, "mammalian cells": {"tested_on": "mammalian cells", "conditions": "read-out: Cytotoxicity IC50, ref Zhang et al., [30]; cited from earlier work"}}, "note": "Several values for one entry are separate records, joined by “and”; a condition that tells them apart may be missing. Identical values can stand only once. Like-named read-outs stand apart in the source and are kept apart here.", "data": [{"smiles": "CO[C@@H]1/C=C\\O[C@]2(C)Oc3c(C)c(O)c4c(O)c(c(CN(C)C)c(O)c4c3C2=O)NC(=O)/C(C)=C\\C=C[C@@H](C)[C@@H](O)[C@H](C)[C@@H](O)[C@H](C)[C@H](OC(C)=O)[C@@H]1C", "note": "[NSC145612]", "values": [{"measurement": "Mean Percent Inhibition", "setting": "DiMT protein; 50 µM", "result": "68.4% and 38.5% and 36.2%"}, {"measurement": "Mean Percent Inhibition, Average", "setting": "DiMT protein; 50 µM", "result": 47.7, "unit": "%"}, {"measurement": "Mean Percent Inhibition", "setting": "DiMT protein; 100 µM", "result": "57.6% and 50.0% and 61.2%"}, {"measurement": "Mean Percent Inhibition, Average", "setting": "DiMT protein; 100 µM", "result": 56.3, "unit": "%"}, {"measurement": "Mean Percent Inhibition", "setting": "DiMT protein; 150 µM", "result": "66.2% and 62.4% and 82.9%"}, {"measurement": "Mean Percent Inhibition, Average", "setting": "DiMT protein; 150 µM", "result": 70.5, "unit": "%"}, {"measurement": "Mean Percent Inhibition", "setting": "DiMT protein; 200 µM", "result": "77.2% and 75.4% and 75.6%"}, {"measurement": "Mean Percent Inhibition, Average", "setting": "DiMT protein; 200 µM", "result": 76.1, "unit": "%"}, {"measurement": "Mean Percent Inhibition", "setting": "DiMT protein; 250 µM", "result": "84.0% and 87.6% and 81.7%"}, {"measurement": "Mean Percent Inhibition, Average", "setting": "DiMT protein; 250 µM", "result": 84.4, "unit": "%"}, {"measurement": "IC50", "setting": "DiMT protein; read-out: IC 50 (μM ± SEM)", "result": "62.1 ± 1.8", "unit": "µM"}, {"measurement": "Mean completely Immotile (%)", "setting": "D. immitis microfilariae; 25 µM, 0 h", "result": 0, "unit": "%"}, {"measurement": "Mean completely Immotile (%)", "setting": "D. immitis microfilariae; 25 µM, 24 h", "result": 4.67, "unit": "%"}, {"measurement": "Mean completely Immotile (%)", "setting": "D. immitis microfilariae; 25 µM, 48 h", "result": 10.17, "unit": "%"}, {"measurement": "Mean completely Immotile (%)", "setting": "D. immitis microfilariae; 25 µM, 72 h", "result": 25, "unit": "%"}, {"measurement": "Mean completely Immotile (%)", "setting": "D. immitis microfilariae; 25 µM, 96 h", "result": 38.33, "unit": "%"}, {"measurement": "Mean completely Immotile (%)", "setting": "D. immitis microfilariae; 25 µM, 120 h", "result": 48.67, "unit": "%"}, {"measurement": "Mean completely Immotile (%)", "setting": "D. immitis microfilariae; 50 µM, 0 h", "result": 0, "unit": "%"}, {"measurement": "Mean completely Immotile (%)", "setting": "D. immitis microfilariae; 50 µM, 24 h", "result": 12, "unit": "%"}, {"measurement": "Mean completely Immotile (%)", "setting": "D. immitis microfilariae; 50 µM, 48 h", "result": 26.33, "unit": "%"}, {"measurement": "Mean completely Immotile (%)", "setting": "D. immitis microfilariae; 50 µM, 72 h", "result": 43.33, "unit": "%"}, {"measurement": "Mean completely Immotile (%)", "setting": "D. immitis microfilariae; 50 µM, 96 h", "result": 64, "unit": "%"}, {"measurement": "Mean completely Immotile (%)", "setting": "D. immitis microfilariae; 75 µM, 0 h", "result": 0, "unit": "%"}, {"measurement": "Mean completely Immotile (%)", "setting": "D. immitis microfilariae; 75 µM, 24 h", "result": 24.33, "unit": "%"}, {"measurement": "Mean completely Immotile (%)", "setting": "D. immitis microfilariae; 75 µM, 48 h", "result": 87.33, "unit": "%"}, {"measurement": "Mean completely Immotile (%)", "setting": "D. immitis microfilariae; 75 µM, 72 h", "result": 96.67, "unit": "%"}, {"measurement": "Mean completely Immotile (%)", "setting": "D. immitis microfilariae; 75 µM, 96 h", "result": 100, "unit": "%"}, {"measurement": "Mean completely Immotile (%)", "setting": "D. immitis microfilariae; 75 µM, 120 h", "result": 100, "unit": "%"}, {"measurement": "Mean completely Immotile (%)", "setting": "D. immitis microfilariae; 100 µM, 0 h", "result": 0, "unit": "%"}, {"measurement": "Mean completely Immotile (%)", "setting": "D. immitis microfilariae; 100 µM, 24 h", "result": 55.33, "unit": "%"}, {"measurement": "Mean completely Immotile (%)", "setting": "D. immitis microfilariae; 100 µM, 48 h", "result": 94.33, "unit": "%"}, {"measurement": "Mean completely Immotile (%)", "setting": "D. immitis microfilariae; 100 µM, 72 h", "result": 100, "unit": "%"}, {"measurement": "Mean completely Immotile (%)", "setting": "D. immitis microfilariae; 100 µM, 96 h", "result": 100, "unit": "%"}, {"measurement": "Mean completely Immotile (%)", "setting": "D. immitis microfilariae; 100 µM, 120 h", "result": 100, "unit": "%"}, {"measurement": "EC50", "setting": "D. immitis microfilariae; 96 h post-treatment, read-out: Anti-parasitic EC50", "result": 32.2, "unit": "µM"}, {"measurement": "Completely Immotile Microfilariae (%)", "setting": "D. immitis microfilariae; 25 µM, 0 h", "result": 0, "unit": "%"}, {"measurement": "Completely Immotile Microfilariae (%)", "setting": "D. immitis microfilariae; 25 µM, 24 h", "result": "5% and 3% and 6%"}, {"measurement": "Completely Immotile Microfilariae (%)", "setting": "D. immitis microfilariae; 25 µM, 48 h", "result": "10% and 8% and 12.5%"}, {"measurement": "Completely Immotile Microfilariae (%)", "setting": "D. immitis microfilariae; 25 µM, 72 h", "result": "28% and 22% and 25%"}, {"measurement": "Completely Immotile Microfilariae (%)", "setting": "D. immitis microfilariae; 25 µM, 96 h", "result": "41% and 36% and 38% and 50%"}, {"measurement": "Completely Immotile Microfilariae (%)", "setting": "D. immitis microfilariae; 25 µM, 120 h", "result": "50% and 44% and 52%"}, {"measurement": "Completely Immotile Microfilariae (%)", "setting": "D. immitis microfilariae; 50 µM, 0 h", "result": 0, "unit": "%"}, {"measurement": "Completely Immotile Microfilariae (%)", "setting": "D. immitis microfilariae; 50 µM, 24 h", "result": "10% and 12% and 14%"}, {"measurement": "Completely Immotile Microfilariae (%)", "setting": "D. immitis microfilariae; 50 µM, 48 h", "result": "25% and 23% and 31%"}, {"measurement": "Completely Immotile Microfilariae (%)", "setting": "D. immitis microfilariae; 50 µM, 72 h", "result": "40% and 44% and 46%"}, {"measurement": "Completely Immotile Microfilariae (%)", "setting": "D. immitis microfilariae; 50 µM, 96 h", "result": "60% and 64% and 68% and 100%"}, {"measurement": "Completely Immotile Microfilariae (%)", "setting": "D. immitis microfilariae; 50 µM, 120 h", "result": 100, "unit": "%"}, {"measurement": "Completely Immotile Microfilariae (%)", "setting": "D. immitis microfilariae; 75 µM, 0 h", "result": 0, "unit": "%"}, {"measurement": "Completely Immotile Microfilariae (%)", "setting": "D. immitis microfilariae; 75 µM, 24 h", "result": "21% and 28% and 24%"}, {"measurement": "Completely Immotile Microfilariae (%)", "setting": "D. immitis microfilariae; 75 µM, 48 h", "result": "85% and 90% and 87%"}, {"measurement": "Completely Immotile Microfilariae (%)", "setting": "D. immitis microfilariae; 75 µM, 72 h", "result": "95% and 97% and 98%"}, {"measurement": "Completely Immotile Microfilariae (%)", "setting": "D. immitis microfilariae; 75 µM, 96 h", "result": 100, "unit": "%"}, {"measurement": "Completely Immotile Microfilariae (%)", "setting": "D. immitis microfilariae; 75 µM, 120 h", "result": 100, "unit": "%"}, {"measurement": "Completely Immotile Microfilariae (%)", "setting": "D. immitis microfilariae; 100 µM, 0 h", "result": 0, "unit": "%"}, {"measurement": "Completely Immotile Microfilariae (%)", "setting": "D. immitis microfilariae; 100 µM, 24 h", "result": "50% and 56% and 60%"}, {"measurement": "Completely Immotile Microfilariae (%)", "setting": "D. immitis microfilariae; 100 µM, 48 h", "result": "93% and 95%"}, {"measurement": "Completely Immotile Microfilariae (%)", "setting": "D. immitis microfilariae; 100 µM, 72 h", "result": 100, "unit": "%"}, {"measurement": "Completely Immotile Microfilariae (%)", "setting": "D. immitis microfilariae; 100 µM, 96 h", "result": 100, "unit": "%"}, {"measurement": "Completely Immotile Microfilariae (%)", "setting": "D. immitis microfilariae; 100 µM, 120 h", "result": 100, "unit": "%"}, {"measurement": "effect on microfilariae", "setting": "D. immitis microfilariae; up to 120 h of culture", "result": "killing effect"}, {"measurement": "IC50", "setting": "mammalian cells", "result": 302, "unit": "µM"}]}]}
